This is an account of results in article PMC7401255, “Osirisynes G-I, New Long-Chain Highly Oxygenated Polyacetylenes from the Mayotte Marine Sponge Haliclona sp” (Marine Drugs, 2020).

One test has as its target T1, FynB wt (Homo sapiens, UniProt P06241).
T1 construct: Crelux construct CTX4, PC09815-1
Description: FynB kinase inhibition assay (ADP-Glo Kinase Assay). The test is classed as biochemical. How it is done:
The assay buffer contained 20 mM Tris pH 8.0, 170 mM NaCl, and 10 mM MgCl2.
For the selected hits, 9.5 µL protein dilution (final concentration 200 nM) were mixed with 0.5 µL of compound dilution ranging from 1–0.0005 mg/mL (assay end conc. 33–0.016 μg/mL) and preincubated for 90 min.
Then, 5 µL substrate/ATP mix was added (final concentration substrate 10 µM and ATP 100 µM) and the assay was incubated for another 2 h. Afterwards, 5 µL of the 15 µL assay reaction were transferred to new wells and 5 µL ADP Glo Reagent was added to terminate the kinase reaction and deplete the remaining ATP. After 40 min, 10 µL of Kinase Detection Reagent was added to convert ADP to ATP and allow the newly synthesized ATP to be measured using a luciferase/luciferin reaction. After another 40 min, the assay plates were measured in Luminescence mode on a Tecan M1000 plate reader. The light generated, i.e., luminescent signal, is proportional to the ADP concentration produced and is correlated with kinase activity. The IC50 was calculated using XLfit.
For orientation: In ADP-Glo the light output rises with the ADP produced.

The next test concerns the target T2, Yeast proteasome (Saccharomyces cerevisiae, UniProt P30656).
T2 construct: TUM Groll group (academic supplier)
Put plainly: Proteasome inhibition assay (fluorescence intensity, Suc-Leu-Leu-Val-Tyr-AMC). The class given is biochemical. The settings on record: 9 nM yeast proteasome, 5 µM substrate, preincubated 90 min, 22 °C. As to the method:
The assay was carried out at room temperature (22 °C) using Corning 4514 black low volume 384-well plates. All measurements were performed in duplicate and the final DMSO concentration was 3.3%. The assay buffer contained 100 mM Tris pH 7.5 and 1 mM MgCl2. (Table 5).
For the positive control, 9.5 µL protein dilution (final concentration 9 nM) were mixed with 0.5 µL of compound dilution ranging from 30–0.015 μM (assay end conc. 1000–0.5 nM). For the selected hits, 9.5 µL protein dilution (final concentration 9 nM) were mixed with 0.5 µL of compound dilution ranging from 1–0.0005 mg/mL (assay end conc. 33–0.016 μg/mL) and preincubated for 90 min. Then, 5 µL substrate mix was added (final concentration 5 µM) and incubated for 60 min. The assay plates were measured in Fluorescence mode on a Tecan M1000 plate reader (ex 380 nm, em 460 nm). The IC50 was calculated using XLfit.
For assay set-up and validation, the tool compound ONX-0914 was utilized. For this tool compound, a dose-dependent decrease in the Fluorescence signal was observed similar to previous results.

The target in a further test is T3, CDK7 (Homo sapiens, UniProt P50613).
T3 construct: Crelux construct CZY-3, PC09891
Put plainly: CDK7 inhibition assay (ADP-Glo Kinase Assay). The class given is biochemical. The settings on record: for pIC50: 300 nM CDK7, 30 µM CDKtide, 125 µM ATP, preincubated 120 min, 22 °C. How it is done: The assay was carried out at room temperature (22 °C) using Corning white low volume 384-well plates. […]. The assay buffer contained 20 mM Hepes pH 7.0, 150 mM NaCl, and 10 mM MgCl2. (Table 4).
For the positive control, 9.5 µL protein dilution (final concentration 300 nM) were mixed with 0.5 µL of compound dilution ranging from 990–0.006 μM (assay end conc. 33–0.0002 μM). For the selected hits, 9.5 µL protein dilution (final concentration 300 nM) were mixed with 0.5 µL of compound dilution ranging from 1–0.0005 mg/mL (assay end conc. 33–0.016 μg/mL) and preincubated for 120 min.
Then, 5 µL substrate/ATP mix was added (final concentration substrate 30 µM and ATP 125 µM) and the assay was incubated for another 2 h. Afterwards, 5 µL of the 15 µL assay reaction were transferred to new wells and 5 μL ADP Glo Reagent was added to terminate the kinase reaction and deplete the remaining ATP. After 40 min, 10 µL of Kinase Detection Reagent was added to convert ADP to ATP and allow the newly synthesized ATP to be measured using a luciferase/luciferin reaction. After another 40 min, the assay plates were measured in Luminescence mode on a Tecan M1000 plate reader.
The light generated, i.e., luminescent signal, is proportional to the ADP concentration produced and is correlated with kinase activity. The IC50 was calculated using XLfit.

Test [1] has as its system reverse transcriptase (RT). Further details: method as in doi:10.1016/S0040-4039(00)96493-1. Conditions: cited from earlier work.
The subject of the next test is Na+/K+ ATPase. The arrangement: method as in doi:10.1016/S0040-4039(00)96493-1. The settings on record: cited from earlier work.
Setting [2] is: 200 nM FynB wt, 10 µM Fyn substrate, 100 µM ATP, preincubated 90 min, 22 °C, read-out: IC50 FynB Kinase Inhibition.

pIC50: −log10 of the molar value. Where two headings read alike, the source gives them in different places.

T1 sequence (P06241 whole entry): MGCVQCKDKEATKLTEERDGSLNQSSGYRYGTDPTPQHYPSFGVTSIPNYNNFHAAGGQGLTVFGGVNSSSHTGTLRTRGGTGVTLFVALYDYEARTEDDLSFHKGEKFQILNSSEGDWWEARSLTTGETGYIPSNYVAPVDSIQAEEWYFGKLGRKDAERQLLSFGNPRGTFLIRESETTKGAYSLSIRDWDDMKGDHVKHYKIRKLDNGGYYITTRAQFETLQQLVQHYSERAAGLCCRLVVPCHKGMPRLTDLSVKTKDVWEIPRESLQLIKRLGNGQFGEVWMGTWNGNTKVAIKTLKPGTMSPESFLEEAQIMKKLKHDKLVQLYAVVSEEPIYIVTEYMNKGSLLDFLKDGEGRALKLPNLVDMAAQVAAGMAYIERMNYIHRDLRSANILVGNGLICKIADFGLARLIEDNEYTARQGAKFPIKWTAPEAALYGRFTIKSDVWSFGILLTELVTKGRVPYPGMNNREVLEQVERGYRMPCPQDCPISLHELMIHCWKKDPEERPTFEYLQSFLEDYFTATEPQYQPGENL
T3 sequence (P50613 whole entry, species assumed): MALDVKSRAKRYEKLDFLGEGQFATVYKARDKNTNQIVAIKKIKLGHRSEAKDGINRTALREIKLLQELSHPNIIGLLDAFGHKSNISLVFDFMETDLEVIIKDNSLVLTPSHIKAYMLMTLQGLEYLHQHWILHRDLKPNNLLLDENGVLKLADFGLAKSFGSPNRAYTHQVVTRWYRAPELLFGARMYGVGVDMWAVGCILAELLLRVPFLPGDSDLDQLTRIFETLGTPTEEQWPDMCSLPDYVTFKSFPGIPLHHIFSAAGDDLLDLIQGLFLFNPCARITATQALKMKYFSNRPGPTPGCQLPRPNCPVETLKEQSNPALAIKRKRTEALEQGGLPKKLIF

Regarding `C#CC(O)/C=C/C(O)CCCC(O)CC#CC(O)C#CC(O)CCCC(O)/C=C/CCCCCC(=O)CCCCCCCCCCCCCC(O)C(O)C#CC(=O)O` (stereo not shown) [Osirisyne A (4), osirisyne A], the pIC50 on FynB wt (setting [2]) and against Yeast proteasome was less than 4.39 throughout.
Turning to `C#CC(O)/C=C/C(O)CCCC(O)CC#CC(O)C#CCCCCC(O)/C=C/CCCCCC(=O)CCCCCCCCCCCCCC(O)C(O)C#CC(=O)O` (stereo not shown) [Osirisyne B (5), osirisyne B], the “Fyn kinase inhibition (in words)” value on FynB wt is on record as “inhibited”. The figures for the pIC50 on FynB wt (setting [2]), against Yeast proteasome and against CDK7 were 4.73, 6.59 and 5.04, respectively. Besides, the “CDK7 inhibition (in words)” value on CDK7 is recorded as “inhibited”.
Consider `C#CC(O)/C=C/C(O)CCCC(O)CC#CC(O)C#CCCCCC(O)/C=C/CCCC(O)/C=C/CCCCCCCCCCCCCC(O)C(O)C#CC(=O)O` (stereo not shown) [Osirisyne E (6), osirisyne E], for which, on FynB wt, the “Fyn kinase inhibition (in words)” value was “inhibited”. Further, the pIC50 on FynB wt (setting [2]), on Yeast proteasome and against CDK7 was less than 4.38 each time. Moreover, in test [1], the “reverse transcriptase (RT) inhibitory activity (in words)” value is given as “inhibitory activities”. Moreover, the “Na+/K+ ATPase inhibitory activity (in words)” value in the test on Na+/K+ ATPase is given as “inhibitory activities”. In addition, on CDK7, the “CDK7 inhibition (in words)” value is “inhibited”.
As for `C#CC(O)/C=C/C(O)CCCC(O)CC#CC(O)C#CC(O)CCCC(O)/C=C/CCCCCC(=O)CCCCCCCCCCCCC(O)C(O)C(O)C#CC(=O)O` (stereo not shown) [Osirisyne G (1), osirisyne G], the pIC50 at FynB wt (setting [2]) and against Yeast proteasome was less than 4.40 each time.
`C#CC(O)/C=C/C(O)CCCC(O)CC#CC(O)C#CCCCCC(O)/C=C/CCCCCC(=O)CCCCCCCCCCCCC(O)C(O)C(O)C#CC(=O)O` (stereo not shown) [Osirisyne H (2), osirisyne H]: on FynB wt, the pIC50 (in general, the IC50 on a negative log10 scale, so that one unit is a factor of ten) was less than 4.39.
As for `C#CC(O)/C=C/C(O)CCCC(O)CC#CC(O)C#CC(O)CCCC(O)/C=C/CCCC(O)/C=C/CCCCCCCCCCCCCC(O)C(O)C#CC(=O)O` (stereo not shown) [Osirisyne I (3), osirisyne I], the pIC50 on FynB wt (setting [2]) and at Yeast proteasome was less than 4.39 each time.
